From US7572793B2, “3-Substituted-4-pyrimidone derivatives” (Mitsubishi Tanabe Pharma Corporation, priority 2001, dated 2009)

Each compound was assayed against T1, bovine cerebral TPK1 (Bos taurus, UniProt A0A3Q1MT31) (assay: Inhibitory activity against P-GS1 phosphorylation by bovine cerebral TPK1). Conditions: 41.7 μM [γ-32P]ATP, 25° C., 2 hours, pH 6.5.
T1 construct: from tissue; host or cells: bovine brain (cerebrum)
Assay type: biochemical
Method: Inhibitory Activity of the Medicament of the Present Invention Against P-GS1 Phosphorylation by Bovine Cerebral TPK1
A mixture containing 100 mM MES-sodium hydroxide (pH 6.5), 1 mM magnesium acetate, 0.5 mM EGTA, 5 mM β-mercaptoethanol, 0.02% Tween 20, 10% glycerol, 12 μg/ml P-GS1, 41.7 μM [y-^32P] ATP (68 kBq/ml), bovine cerebral TPK1 and a compound shown in Table (a final mixture contained 1.7% DMSO deriving from a solution of a test compound prepared in the presence of 10% DMSO) was used as a reaction system. The phosphorylation was started by adding ATP, and the reaction was conducted at 25° C. for 2 hours, and then stopped by adding 21% perchloric acid on ice cooling. The reaction mixture was centrifuged at 12,000 rpm for 5 minutes and adsorbed on P81 paper (Whatmann), and then the paper was washed four times with 75 mM phosphoric acid, three times with water and once with acetone. The paper was dried, and the residual radioactivity was measured using a liquid scintillation counter. […] PHF formation, and that the medicaments of the present invention are effective for preventive and/or therapeutic treatment of Alzheimer disease and the above-mentioned diseases.

T1 sequence (A0A3Q1MT31 1-419): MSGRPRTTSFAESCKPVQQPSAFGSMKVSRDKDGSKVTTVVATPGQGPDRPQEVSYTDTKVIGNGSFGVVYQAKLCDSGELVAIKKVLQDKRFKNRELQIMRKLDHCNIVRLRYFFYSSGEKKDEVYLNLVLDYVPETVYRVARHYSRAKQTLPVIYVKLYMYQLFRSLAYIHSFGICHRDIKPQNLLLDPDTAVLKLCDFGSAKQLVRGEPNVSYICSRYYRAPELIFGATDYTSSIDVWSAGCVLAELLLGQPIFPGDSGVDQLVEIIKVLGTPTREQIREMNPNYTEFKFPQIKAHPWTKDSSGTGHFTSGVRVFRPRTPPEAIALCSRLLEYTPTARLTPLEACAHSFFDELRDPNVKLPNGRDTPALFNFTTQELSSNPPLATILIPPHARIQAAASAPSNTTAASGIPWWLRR

Compared with `Cn1c(N2CCOC(c3cccc(N4CCCC4)c3)C2)nc(-c2ccncn2)cc1=O` (single isomer, unassigned) [Compound B275], `Cn1c(N2CCOC(c3ccc(N4CCCC4)cc3)C2)nc(-c2ccncn2)cc1=O` (centres unmarked) [Compound B140] is 1.9-fold lower in IC50: 7 nM for the first, 3.7 nM for the second. The second is the more potent here.

Compared with `Cn1c(N2CCOC(c3cccc(N4CCCC4)c3)C2)nc(-c2ccncn2)cc1=O` (single isomer, unassigned) [Compound B276], `COc1cc(N2CCCC2)ccc1C1CN(c2nc(-c3ccncn3)cc(=O)n2C)CCO1` (centres unmarked) [Compound B260] is 6.2-fold lower in IC50: 4.8 nM for the first, 0.77 nM for the second. The second is the more potent here.

First: Cn1c(N2CCOC(C(=O)c3ccccc3)C2)nc(-c2ccncn2)cc1=O (single isomer, unassigned) [Compound C789]
Second: Cn1c(N2CCCC(C(=O)c3ccccc3)C2)nc(-c2ccncn2)cc1=O (centres unmarked) [Compound C401]
The IC50 of the first is 35-fold higher: 38 nM for the first, 1.1 nM for the second. The second is the more potent here.

Going from `Cn1c(N2CCOC(C(=O)c3ccccc3)C2)nc(-c2ccncn2)cc1=O` (single isomer, unassigned) [Compound C790] to `Cn1c(N2CCO[C@@H](c3ccccc3F)C2)nc(-c2ccncn2)cc1=O` [Compound B037], the IC50 rises from 0.64 nM to 3 nM (4.7-fold).

`Cn1c(NCC(=O)c2ccccc2)nc(-c2ccncn2)cc1=O` [Compound A119] and `Cn1c(NCC(=O)c2cccc(F)c2)nc(-c2ccncn2)cc1=O` [Compound A121] are within 1.5-fold of each other in IC50: 24 nM for the first, 19 nM for the second.

Going from `Cn1c(NCC(=O)c2cccc(Cl)c2)nc(-c2ccncn2)cc1=O` [Compound A124] to `Cc1cccc(C(=O)CNc2nc(-c3ccncn3)cc(=O)n2C)c1` [Compound A130], the IC50 rises from 11 nM to 30 nM (2.7-fold). The first is the more potent here.

First: Cn1c(N2CCOC(c3ccc(F)cc3)C2)nc(-c2ccncn2)cc1=O (centres unmarked) [Compound B030]
Second: Cn1c(N2CCO[C@@H](c3ccc(F)cc3)C2)nc(-c2ccncn2)cc1=O [Compound B031, (S)-2-[2-(4-fluorophenyl)morpholin-4-yl]-3-methyl-6-pyrimidin-4-yl-3H-pyrimidin-4-one]
The IC50 of the first is 2.2-fold higher: 11 nM for the first, 5 nM for the second.

First: Cn1c(N2CCO[C@H](c3ccc(F)cc3)C2)nc(-c2ccncn2)cc1=O [Compound B032]
Second: COc1ccc([C@H]2CN(c3nc(-c4ccncn4)cc(=O)n3C)CCO2)cc1 [Compound B079, (S)-2-[2-(4-Methoxyphenyl)morpholin-4-yl]-3-methyl-6-pyrimidin-4-yl-3H-pyrimidin-4-one]
The IC50 of the first is 11-fold higher: 32 nM for the first, 2.9 nM for the second.

First: COc1cccc([C@H]2CN(c3nc(-c4ccncn4)cc(=O)n3C)CCO2)c1 [Compound B082]
Second: COc1ccccc1C1CN(c2nc(-c3ccncn3)cc(=O)n2C)CCO1 (centres unmarked) [Compound B084]
The IC50 of the first is 3.8-fold higher: 4.6 nM for the first, 1.2 nM for the second.

First: COc1ccccc1[C@H]1CN(c2nc(-c3ccncn3)cc(=O)n2C)CCO1 [Compound B085]
Second: COc1cc(F)ccc1[C@H]1CN(c2nc(-c3ccncn3)cc(=O)n2C)CCO1 [Compound B238]
The IC50 of the first is 1.9-fold higher: 0.87 nM for the first, 0.47 nM for the second.

Compared with `COc1cccc(OC)c1C1CN(c2nc(-c3ccncn3)cc(=O)n2C)CCO1` (centres unmarked) [Compound B102], `COc1cccc(OC)c1[C@H]1CN(c2nc(-c3ccncn3)cc(=O)n2C)CCO1` [Compound B103] is 1.9-fold lower in IC50: 0.441 nM for the first, 0.23 nM for the second.

Compared with `COc1cccc(OC)c1[C@@H]1CN(c2nc(-c3ccncn3)cc(=O)n2C)CCO1` [Compound B104], `COc1cc(F)cc(OC)c1[C@H]1CN(c2nc(-c3ccncn3)cc(=O)n2C)CCO1` [Compound B244] is 26-fold lower in IC50: 4.5 nM for the first, 0.17 nM for the second.

First: Cn1c(N2CCOC(c3c(Cl)cccc3Cl)C2)nc(-c2ccncn2)cc1=O (centres unmarked) [Compound B105]
Second: Cn1c(N2CCOC(c3c(F)cccc3Cl)C2)nc(-c2ccncn2)cc1=O (centres unmarked) [Compound B239]
The IC50 of the first is 2.7-fold lower: 0.27 nM for the first, 0.74 nM for the second. The first is the more potent here.

Going from `Cn1c(N2CCOC(c3ccc(CN4CCCC4)cc3)C2)nc(-c2ccncn2)cc1=O` (centres unmarked) [Compound B112] to `COc1ccc(CN2CCCC2)cc1C1CN(c2nc(-c3ccncn3)cc(=O)n2C)CCO1` (centres unmarked) [Compound B264], the IC50 falls from 2.1 nM to 0.6 nM (3.5-fold). The second is the more potent here.

Compared with `Cn1c(N2CCOC(c3ccccc3OCC3CC3)C2)nc(-c2ccncn2)cc1=O` (centres unmarked) [Compound B126], `Cn1c(N2CCOC(c3ccc(F)cc3OCC3CC3)C2)nc(-c2ccncn2)cc1=O` (centres unmarked) [Compound B247] is 1.5-fold lower in IC50: 23 nM for the first, 15 nM for the second.

Going from `COc1ccc(C2CN(c3nc(-c4ccncn4)cc(=O)n3C)CC(C)(C)O2)cc1` (centres unmarked) [Compound B217] to `COc1ccc(-c2ccc(OC)c(C3CN(c4nc(-c5ccncn5)cc(=O)n4C)CCO3)c2)cc1` (centres unmarked) [Compound B268], the IC50 falls from 26.1 nM to 1.7 nM (15-fold). The second is the more potent here.

Going from `Cn1c(N2CCOC(c3nc4ccccc4s3)C2)nc(-c2ccncn2)cc1=O` (centres unmarked) [Compound B225] to `Cn1c(N2CCOC(c3noc4ccccc34)C2)nc(-c2ccncn2)cc1=O` (centres unmarked) [Compound B251], the IC50 falls from 12 nM to 2.4 nM (5-fold). The second is the more potent here.

Going from `Cn1c(N2CCOC(c3cccc4c3OCC4)C2)nc(-c2ccncn2)cc1=O` (centres unmarked) [Compound B237] to `Cn1c(N2CCO[C@@H](c3cccc4c3OCC4)C2)nc(-c2ccncn2)cc1=O` [Compound B243], the IC50 rises from 0.821 nM to 4.2 nM (5.1-fold). The first is the more potent here.

First: Cn1c(N2CCOC(c3ccc(F)cc3Cl)C2)nc(-c2ccncn2)cc1=O (centres unmarked) [Compound B240]
Second: Cn1c(N2CCOC(c3ccc(F)cc3O)C2)nc(-c2ccncn2)cc1=O (centres unmarked) [Compound B257]
The IC50 of the first is 2.1-fold lower: 3.5 nM for the first, 7.4 nM for the second.

Going from `CC(C)Oc1cc(F)ccc1C1CN(c2nc(-c3ccncn3)cc(=O)n2C)CCO1` (centres unmarked) [Compound B241] to `COc1cc(Cl)ccc1C1CN(c2nc(-c3ccncn3)cc(=O)n2C)CCO1` (centres unmarked) [Compound B249], the IC50 falls from 4.6 nM to 0.83 nM (5.5-fold). The second is the more potent here.

First: Cn1c(N2CCOC(c3cc4cc(F)ccc4n3C)C2)nc(-c2ccncn2)cc1=O (centres unmarked) [Compound B242]
Second: COc1cc(F)cc(F)c1C1CN(c2nc(-c3ccncn3)cc(=O)n2C)CCO1 (centres unmarked) [Compound B250]
The IC50 of the first is 12-fold higher: 6.9 nM for the first, 0.56 nM for the second.

First: COc1cc(F)cc(OC)c1[C@@H]1CN(c2nc(-c3ccncn3)cc(=O)n2C)CCO1 [Compound B245]
Second: COc1cc(F)cc(F)c1[C@H]1CN(c2nc(-c3ccncn3)cc(=O)n2C)CCO1 [Compound B254]
The IC50 of the first is 5.4-fold higher: 1.3 nM for the first, 0.24 nM for the second.

`COc1cc(C)c(C)cc1C1CN(c2nc(-c3ccncn3)cc(=O)n2C)CCO1` (centres unmarked) [Compound B246] and `COc1ccc(C#N)cc1C1CN(c2nc(-c3ccncn3)cc(=O)n2C)CCO1` (centres unmarked) [Compound B248] are within 1.5-fold of each other in IC50: 1.1 nM for the first, 0.78 nM for the second.

Compared with `Cn1c(N2CCO[C@@H](c3noc4ccccc34)C2)nc(-c2ccncn2)cc1=O` [Compound B252], `Cn1c(N2CCOC(c3cc4ccccc4o3)C2)nc(-c2ccncn2)cc1=O` (centres unmarked) [Compound B271] is 4.2-fold higher in IC50: 1 nM for the first, 4.2 nM for the second.

Going from `COc1cc(C#N)ccc1C1CN(c2nc(-c3ccncn3)cc(=O)n2C)CCO1` (centres unmarked) [Compound B253] to `COc1cc(-c2ccccc2)ccc1C1CN(c2nc(-c3ccncn3)cc(=O)n2C)CCO1` (centres unmarked) [Compound B258], the IC50 rises from 0.7 nM to 1.4 nM (2-fold). The first is the more potent here.

Going from `COc1ccc(-c2ccc(F)cc2)cc1C1CN(c2nc(-c3ccncn3)cc(=O)n2C)CCO1` (centres unmarked) [Compound B255] to `COc1cc(-c2ccc(F)cc2)ccc1C1CN(c2nc(-c3ccncn3)cc(=O)n2C)CCO1` (centres unmarked) [Compound B279], the IC50 falls from 4.6 nM to 1.2 nM (3.8-fold). The second is the more potent here.

First: COc1ccc(-c2cccnc2)cc1C1CN(c2nc(-c3ccncn3)cc(=O)n2C)CCO1 (centres unmarked) [Compound B256]
Second: COc1ccc(-c2cccc(F)c2)cc1C1CN(c2nc(-c3ccncn3)cc(=O)n2C)CCO1 (centres unmarked) [Compound B266]
The IC50 of the first is 2.5-fold lower: 0.64 nM for the first, 1.6 nM for the second. The first is the more potent here.

Compared with `COc1ccc(N2CCCC2)cc1C1CN(c2nc(-c3ccncn3)cc(=O)n2C)CCO1` (centres unmarked) [Compound B259], `COc1ccc(-c2cccc(CN3CCCC3)c2)cc1C1CN(c2nc(-c3ccncn3)cc(=O)n2C)CCO1` (centres unmarked) [Compound B274] is 2.1-fold lower in IC50: 1.2 nM for the first, 0.57 nM for the second.

`COc1ccc(-c2ccccc2F)cc1C1CN(c2nc(-c3ccncn3)cc(=O)n2C)CCO1` (centres unmarked) [Compound B261] and `COc1cc(-c2ccccc2F)ccc1C1CN(c2nc(-c3ccncn3)cc(=O)n2C)CCO1` (centres unmarked) [Compound B277] are the same in IC50: 1.4 nM for the first, 1.4 nM for the second.

`COc1cccc(-c2ccc(OC)c(C3CN(c4nc(-c5ccncn5)cc(=O)n4C)CCO3)c2)c1` (centres unmarked) [Compound B262] and `COc1ccccc1-c1ccc(OC)c(C2CN(c3nc(-c4ccncn4)cc(=O)n3C)CCO2)c1` (centres unmarked) [Compound B267] are within 1.5-fold of each other in IC50: 1.3 nM for the first, 1.2 nM for the second.

First: COc1ccc(-c2ccc(Cl)cc2Cl)cc1C1CN(c2nc(-c3ccncn3)cc(=O)n2C)CCO1 (centres unmarked) [Compound B263]
Second: COc1ccc(-c2ccccn2)cc1C1CN(c2nc(-c3ccncn3)cc(=O)n2C)CCO1 (centres unmarked) [Compound B280]
The IC50 of the first is 22-fold higher: 13 nM for the first, 0.6 nM for the second.

Going from `COc1ccc(Nc2ccccc2)cc1C1CN(c2nc(-c3ccncn3)cc(=O)n2C)CCO1` (centres unmarked) [Compound B269] to `Cn1c(N2CCOC(c3ccc(F)cc3OCc3ccccc3)C2)nc(-c2ccncn2)cc1=O` (centres unmarked) [Compound B270], the IC50 rises from 1.1 nM to 27 nM (25-fold).

First: Cn1c(N2CCO[C@@H](c3cc4ccccc4o3)C2)nc(-c2ccncn2)cc1=O [Compound B272]
Second: COc1cccc2cc(C3CN(c4nc(-c5ccncn5)cc(=O)n4C)CCO3)oc12 (centres unmarked) [Compound B273]
The IC50 of the first is 1.7-fold higher: 7.1 nM for the first, 4.3 nM for the second.

`COc1cc(-c2cccc(F)c2)ccc1C1CN(c2nc(-c3ccncn3)cc(=O)n2C)CCO1` (centres unmarked) [Compound B278] and `COc1cccc(-c2ccc(OC)c(C3CN(c4nc(-c5ccncn5)cc(=O)n4C)CCO3)c2)n1` (centres unmarked) [Compound B281] are within 1.5-fold of each other in IC50: 1.1 nM for the first, 0.84 nM for the second.

Compared with `COc1ncc(-c2ccc(OC)c(C3CN(c4nc(-c5ccncn5)cc(=O)n4C)CCO3)c2)c(OC)n1` (centres unmarked) [Compound B283], `Cn1c(N2CCOC3(CCOc4ccccc43)C2)nc(-c2ccncn2)cc1=O` (centres unmarked) [Compound B284] is 5.8-fold higher in IC50: 1.9 nM for the first, 11 nM for the second. The first is the more potent here.

`Cn1c(N2CCOC3(CCCOc4ccccc43)C2)nc(-c2ccncn2)cc1=O` (centres unmarked) [Compound B285] was tested, and the IC50 was 26 nM.
